Measurements published in US20230348622A1, “USE OF LANCL1 AND ANTIBODIES THEREOF AS A DIAGNOSTIC AND THERAPEUTIC TARGET FOR THE MANAGEMENT AND TREATMENT OF CANCER” (The University of Hong Kong, priority 2022, published 2023).

Tested on: PLC/PRF/5 and MHCC-97L cells
Assay: Intracellular ROS level in LANCL1-KD HCC cells
Assay type: cell-based, human
Conditions: addition of oxidizing agent

For `CC(C)(C)OO` [TBHP, tert-Butyl hydroperoxide], the ROS levels was “significantly increased”.
